Laboratory results from ChEMBL document CHEMBL3826929, “Discovery and Preclinical Evaluation of BMS-711939, an Oxybenzylglycine Based PPARα Selective Agonist” (ACS Med Chem Lett, 2016).

Key:
[1] = molecular target: T1, Peroxisome proliferator-activated receptor alpha (Homo sapiens) (UniProt Q07869); assay: Intrinsic activity at PPAR-alpha (unknown origin) relative to fenofibric acid
T1 sequence (whole entry): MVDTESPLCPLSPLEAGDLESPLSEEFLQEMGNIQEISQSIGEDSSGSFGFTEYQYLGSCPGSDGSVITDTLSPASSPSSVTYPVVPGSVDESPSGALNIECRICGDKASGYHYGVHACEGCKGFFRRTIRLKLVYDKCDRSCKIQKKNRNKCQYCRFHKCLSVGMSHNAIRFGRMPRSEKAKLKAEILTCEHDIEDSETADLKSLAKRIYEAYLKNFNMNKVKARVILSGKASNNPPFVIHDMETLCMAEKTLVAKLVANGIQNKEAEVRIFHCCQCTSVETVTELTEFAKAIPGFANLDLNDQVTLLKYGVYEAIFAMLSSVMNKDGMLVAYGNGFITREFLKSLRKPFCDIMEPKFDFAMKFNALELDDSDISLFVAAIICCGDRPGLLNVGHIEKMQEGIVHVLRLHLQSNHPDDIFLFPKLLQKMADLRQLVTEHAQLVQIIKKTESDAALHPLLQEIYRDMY

[2] = molecular target: T2, Peroxisome proliferator-activated receptor alpha (Homo sapiens, UniProt Q07869); assay: Agonist activity at Gal4-tagged human PPAR-alpha expressed in HEK cells by transactivation assay; assay type: cell-based, HEK293
T2 sequence (Q07869 whole entry): T1 sequence (whole entry)

[3] = molecular target: T3, Peroxisome proliferator-activated receptor gamma (Homo sapiens, UniProt P37231); assay: Agonist activity at Gal4-tagged human PPAR-gamma expressed in HEK cells by transactivation assay; assay type: cell-based, HEK293
T3 sequence (P37231 whole entry): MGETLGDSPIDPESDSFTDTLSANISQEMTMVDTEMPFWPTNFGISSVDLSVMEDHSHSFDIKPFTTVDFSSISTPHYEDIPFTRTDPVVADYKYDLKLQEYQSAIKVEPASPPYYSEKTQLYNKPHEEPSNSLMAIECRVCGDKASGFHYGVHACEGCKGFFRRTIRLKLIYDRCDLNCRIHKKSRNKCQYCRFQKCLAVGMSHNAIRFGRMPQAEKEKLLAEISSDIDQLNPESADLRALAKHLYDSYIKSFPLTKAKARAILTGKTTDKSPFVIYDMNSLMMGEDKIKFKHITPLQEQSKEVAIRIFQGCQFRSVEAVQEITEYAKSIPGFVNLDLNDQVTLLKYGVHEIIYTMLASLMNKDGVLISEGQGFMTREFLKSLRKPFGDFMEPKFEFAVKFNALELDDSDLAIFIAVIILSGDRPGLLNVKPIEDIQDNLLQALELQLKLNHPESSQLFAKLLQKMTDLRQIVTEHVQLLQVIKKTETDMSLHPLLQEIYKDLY

HEK293 = assay: Selectivity ratio of EC50 for Gal4-tagged human PPAR-gamma expressed in HEK cells to EC50 for Gal4-tagged human PPAR-alpha expressed in HEK cells; assay type: cell-based
[4] = molecular target: T2, Peroxisome proliferator-activated receptor alpha; assay: Binding affinity to human GST-tagged PPAR-alpha LBD expressed in Escherichia coli BL21 (DE3) PlysS after 30 mins in presence of fluorescein ligand FLA-A by fluorescence polarization assay
[5] = molecular target: T3, Peroxisome proliferator-activated receptor gamma; assay: Binding affinity to human GST-tagged PPAR-gamma LBD expressed in Escherichia coli BL21 after 30 mins in presence of fluorescein ligand FLA-A by fluorescence polarization assay
Syrian golden hamster [6] = assay: Decrease in liver triglyceride level in high fat-diet fed syrian golden hamster model of dyslipidemia at 10 mg/kg administered qd through oral gavage measured after 21 days by FPLC analysis relative to control; assay type: functional, Mesocricetus auratus; set-up: scale not given: the % may be the effect or the level left
Syrian golden hamster [7] = assay: Decrease in liver triglyceride level in high fat-diet fed syrian golden hamster model of dyslipidemia at 3 mg/kg administered qd through oral gavage measured after 21 days by FPLC analysis relative to control; assay type: functional, Mesocricetus auratus; set-up: scale not given: the % may be the effect or the level left
Syrian golden hamster [8] = assay: Decrease in liver triglyceride level in high fat-diet fed syrian golden hamster model of dyslipidemia at 1 mg/kg administered qd through oral gavage measured after 21 days by FPLC analysis relative to control; assay type: functional, Mesocricetus auratus; set-up: scale not given: the % may be the effect or the level left
Syrian golden hamster [9] = assay: Decrease in liver cholesterol level in high fat-diet fed syrian golden hamster model of dyslipidemia at 10 mg/kg administered qd through oral gavage measured after 21 days by FPLC analysis relative to control; assay type: functional, Mesocricetus auratus; set-up: scale not given: the % may be the effect or the level left
Syrian golden hamster [10] = assay: Decrease in liver cholesterol level in high fat-diet fed syrian golden hamster model of dyslipidemia at 3 mg/kg administered qd through oral gavage measured after 21 days by FPLC analysis relative to control; assay type: functional, Mesocricetus auratus; set-up: scale not given: the % may be the effect or the level left
Syrian golden hamster [11] = assay: Decrease in liver cholesterol level in high fat-diet fed syrian golden hamster model of dyslipidemia at 1 mg/kg administered qd through oral gavage measured after 21 days by FPLC analysis relative to control; assay type: functional, Mesocricetus auratus; set-up: scale not given: the % may be the effect or the level left
Syrian golden hamster [12] = assay: Decrease in plasma LDL cholesterol level in high fat-diet fed syrian golden hamster model of dyslipidemia administered qd through oral gavage measured after 21 days by FPLC analysis relative to control; assay type: functional, organism-based; settings: Mesocricetus auratus
Syrian golden hamster [13] = assay: Decrease in plasma LDL cholesterol level in high fat-diet fed syrian golden hamster model of dyslipidemia at 10 mg/kg administered qd through oral gavage measured after 21 days by FPLC analysis relative to control; assay type: functional, Mesocricetus auratus; set-up: scale not given: the % may be the effect or the level left
Syrian golden hamster [14] = assay: Decrease in plasma LDL cholesterol level in high fat-diet fed syrian golden hamster model of dyslipidemia at 3 mg/kg administered qd through oral gavage measured after 21 days by FPLC analysis relative to control; assay type: functional, Mesocricetus auratus; set-up: scale not given: the % may be the effect or the level left
Syrian golden hamster [15] = assay: Decrease in plasma triglyceride level in high fat-diet fed syrian golden hamster model of dyslipidemia at 10 mg/kg administered qd through oral gavage measured after 21 days by FPLC analysis relative to control; assay type: functional, Mesocricetus auratus; set-up: scale not given: the % may be the effect or the level left
Syrian golden hamster [16] = assay: Decrease in plasma triglyceride level in high fat-diet fed syrian golden hamster model of dyslipidemia at 3 mg/kg administered qd through oral gavage measured after 21 days by FPLC analysis relative to control; assay type: functional, Mesocricetus auratus; set-up: scale not given: the % may be the effect or the level left
Syrian golden hamster [17] = assay: Decrease in plasma triglyceride level in high fat-diet fed syrian golden hamster model of dyslipidemia at 1 mg/kg administered qd through oral gavage measured after 21 days by FPLC analysis relative to control; assay type: functional, Mesocricetus auratus; set-up: scale not given: the % may be the effect or the level left
Syrian golden hamster [18] = assay: Effect on plasma LDL cholesterol level in high fat-diet fed syrian golden hamster model of dyslipidemia at 1 mg/kg administered qd through oral gavage measured after 21 days by FPLC analysis (reference value: 91.7 +/- 8.1 mg/dl); assay type: functional, Mesocricetus auratus
Syrian golden hamster [19] = assay: Increase in liver cholesterol level in high fat-diet fed syrian golden hamster model of dyslipidemia at 1 mg/kg administered qd through oral gavage measured after 21 days by FPLC analysis relative to control; assay type: functional, Mesocricetus auratus
Syrian golden hamster [20] = assay: Decrease in liver triglyceride level in high fat-diet fed syrian golden hamster model of dyslipidemia administered qd through oral gavage measured after 21 days by FPLC analysis; assay type: functional, organism-based; settings: Mesocricetus auratus
Mus musculus [21] = assay: Increase in ApoA1 level in transgenic mouse expressing human ApoA1 at 100 mg/kg administered qd through oral gavage measured after 10 days relative to vehicle-treated control; assay type: functional
Mus musculus [22] = assay: Decrease in triglyceride level in transgenic mouse expressing human ApoA1 at 100 mg/kg administered qd through oral gavage measured after 10 days relative to vehicle control; assay type: functional; set-up: scale not given: the % may be the effect or the level left
Mus musculus [23] = assay: Increase in HDL cholesterol level in transgenic mouse expressing human ApoA1 at 100 mg/kg administered qd through oral gavage measured after 10 days relative to vehicle control; assay type: functional

CCCCOC(=O)N(CC(=O)O)Cc1cc(OCc2nc(-c3ccc(Cl)cc3)oc2C)ccc1F
Intrinsic activity [1]: > 50% | EC50 [2]: 2.8 nM | EC50 [3]: 1240 nM | Ratio EC50 (HEK293): 435

COC(=O)N(CC(=O)O)[C@@H](C)c1cccc(OCc2nc(-c3ccc(Cl)cc3)oc2C)c1
Intrinsic activity [1]: > 50% | EC50 [2]: 8.6 nM | EC50 [3]: 2860 nM | Ratio EC50 (HEK293): 332 | IC50 [4]: 671 nM | IC50 [5]: > 15000 nM

Cc1oc(-c2ccc(Cl)cc2)nc1COc1ccc(F)c(CN(CC(=O)O)C(=O)OCCCF)c1
Intrinsic activity [1]: > 50% | EC50 [2]: 10.6 nM | EC50 [3]: 4380 nM | Ratio EC50 (HEK293): 413

COC(=O)N(CC(=O)O)Cc1cc(F)cc(OCc2nc(-c3ccc(Cl)cc3)oc2C)c1
Intrinsic activity [1]: > 50% | EC50 [2]: 18 nM | EC50 [3]: 2820 nM | Ratio EC50 (HEK293): 157 | IC50 [4]: 1340 nM | IC50 [5]: > 15000 nM

COC(=O)N(CC(=O)O)Cc1cc(OCc2nc(-c3ccc(F)cc3)oc2C)ccc1F
Intrinsic activity [1]: > 50% | EC50 [2]: 14.5 nM | EC50 [3]: 10000 nM | Ratio EC50 (HEK293): 691

COC(=O)N(CC(=O)O)Cc1cc(OCc2nc(-c3ccc(C(C)(C)C)cc3)oc2C)ccc1F
Intrinsic activity [1]: > 50% | EC50 [2]: 2.7 nM | EC50 [3]: 414 nM | Ratio EC50 (HEK293): 154

CCCOC(=O)N(CC(=O)O)Cc1cc(OCc2nc(-c3ccc(Cl)cc3)oc2C)ccc1F
Intrinsic activity [1]: > 50% | EC50 [2]: 3.4 nM | EC50 [3]: 2010 nM | Ratio EC50 (HEK293): 594

COC(=O)N(CC(=O)O)Cc1cc(OCc2nc(-c3ccc(C(F)(F)F)cc3)oc2C)ccc1F
Intrinsic activity [1]: > 50% | EC50 [2]: 3.6 nM | EC50 [3]: 2060 nM | Ratio EC50 (HEK293): 566

COc1ccc(OC(=O)N(CC(=O)O)Cc2cc(OCc3nc(-c4ccc(Cl)cc4)oc3C)ccc2F)cc1
Intrinsic activity [1]: > 50% | EC50 [2]: 6.8 nM | EC50 [3]: 1090 nM | Ratio EC50 (HEK293): 160

COC(=O)N(CC(=O)O)Cc1cccc(OCc2nc(-c3ccc(Cl)cc3)oc2C)c1
Activity (Syrian golden hamster [6]): 23% | Activity (Syrian golden hamster [7]): 17% | Activity (Syrian golden hamster [8]): 6% | Activity (Syrian golden hamster [9]): 40.8% | Activity (Syrian golden hamster [10]): 15.4% | Activity (Syrian golden hamster [11]): -22% | Activity (Syrian golden hamster [12]): Dose-dependent effect | Activity (Syrian golden hamster [13]): 60% | Activity (Syrian golden hamster [14]): 46% | Activity (Syrian golden hamster [15]): 77% | Activity (Syrian golden hamster [16]): 45% | Activity (Syrian golden hamster [17]): 40% | Activity (Syrian golden hamster [18]): 89.3 mg/dL | Activity (Syrian golden hamster [19]): 22% | Activity (Syrian golden hamster [20]): Dose-dependent effect

Cc1oc(-c2ccc(Cl)cc2)nc1COc1ccc(F)c(CN(CC(=O)O)C(=O)OCC(C)C)c1
Intrinsic activity [1]: > 50% | EC50 [2]: 2.3 nM | EC50 [3]: 1500 nM | Ratio EC50 (HEK293): 666

Cc1ccc(OC(=O)N(CC(=O)O)Cc2cc(OCc3nc(-c4ccc(Cl)cc4)oc3C)ccc2F)cc1
Intrinsic activity [1]: > 50% | EC50 [2]: 5.6 nM | EC50 [3]: 1260 nM | Ratio EC50 (HEK293): 224

COC(=O)N(CC(=O)O)Cc1cc(OCc2nc(-c3ccc(S(C)(=O)=O)cc3)oc2C)ccc1F
Intrinsic activity [1]: > 50% | EC50 [2]: > 2500 nM | EC50 [3]: > 25000 nM

CCOC(=O)N(CC(=O)O)Cc1cc(OCc2nc(-c3ccc(Cl)cc3)oc2C)ccc1F
Intrinsic activity [1]: > 50% | EC50 [2]: 4 nM | EC50 [3]: 4270 nM | Ratio EC50 (HEK293): 1080

COC(=O)N(CC(=O)O)Cc1cc(OCc2nc(-c3ccccc3)oc2C)ccc1F
Intrinsic activity [1]: > 50% | EC50 [2]: 59 nM | EC50 [3]: 8610 nM | Ratio EC50 (HEK293): 146

COC(=O)N(CC(=O)O)Cc1ccc(F)c(OCc2nc(-c3ccc(Cl)cc3)oc2C)c1
Intrinsic activity [1]: > 50% | EC50 [2]: 94 nM | EC50 [3]: 9170 nM | Ratio EC50 (HEK293): 98 | IC50 [4]: 1560 nM | IC50 [5]: > 15000 nM

COC(=O)N(CC(=O)O)Cc1cc(OCc2nc(-c3ccc(OC(F)(F)F)cc3)oc2C)ccc1F
Intrinsic activity [1]: > 50% | EC50 [2]: 4.3 nM | EC50 [3]: 2380 nM | Ratio EC50 (HEK293): 556

COC(=O)N(CC(=O)O)Cc1cc(OCc2nc(-c3ccc(C)cc3)oc2C)ccc1F
Intrinsic activity [1]: > 50% | EC50 [2]: 2.8 nM | EC50 [3]: 2180 nM | Ratio EC50 (HEK293): 787

CC(C)OC(=O)C(C)(C)Oc1ccc(C(=O)c2ccc(Cl)cc2)cc1 [FENOFIBRATE]
Activity (Mus musculus [21]): 665% | Activity (Mus musculus [22]): 32.5% | Activity (Mus musculus [23]): 88%
